{"source": "PubChem BioAssay AID1259409", "about": "(Chemical Carcinogenesis Research Information System (CCRIS), 2018)", "origin": "cited, not measured here", "test_system": "rodent chemically induced tumor inhibition, incidence and multiplicity", "assay": "CCRIS tumor inhibitor studies", "conditions": "for tumour outcome (control, treated, inhibition, significance): Carcinogen: 7,12-DIMETHYLBENZ[A]ANTHRACENE, 57-97-6, Route [Inhibitor]: DERMAL, Species: MOUSE, Target Tissue: Type of Lesion: SKIN: PAPILLOMA, Promoter: 12-O-TETRADECANOYLPHORBOL-13-ACETATE, 16561-29-8"}
{"smiles": "CC1=CCC(O)(C(C)C)CC1", "note": "(stereo unspecified)", "values": [{"measurement": "outcome", "setting": "Carcinogen: 7,12-DIMETHYLBENZ[A]ANTHRACENE (57-97-6), Dose [Inhibitor]: 10 MG/KG BW DAILY BETWEEN 45 AND 59 D OF AGE (STUDY DURATION: 1 YR), Route [Inhibitor]: INTRAGASTRIC (GASTRIC) IN HYDROXYETHYLCELLULOSE SODIUM, Species: RAT, Strain/Sex: SPRAGUE-DAWLEY/FEMALE, Target Tissue: Type of Lesion: MAMMARY: ADENOCARCINOMA, Dose [Carcinogen]: 75 MG/KG BW IN SESAME OIL (ONCE) AT 60 D OF AGE", "value": "75%, 85%"}, {"measurement": "outcome", "setting": "Carcinogen: 7,12-DIMETHYLBENZ[A]ANTHRACENE (57-97-6), Dose [Inhibitor]: 10 MG/KG BW DAILY FOR 6 MO AFTER CARCINOGEN ADMINISTRATION, Route [Inhibitor]: INTRAGASTRIC (GASTRIC), Species: RAT, Strain/Sex: SPRAGUE-DAWLEY/FEMALE, Target Tissue: Type of Lesion: MAMMARY: ADENOCARCINOMA, Dose [Carcinogen]: 75 MG/KG BW AT 55 D OF AGE (STUDY DURATION: 1 YR)", "value": "75%, 58%"}]}
{"smiles": "O=C1C[C@@H](c2ccc(O)cc2)Oc2cc(O)cc(O)c21", "values": [{"measurement": "tumour outcome (control, treated, inhibition, significance)", "setting": "Dose [Inhibitor]: 100 UG IN 0.2 ML ACETONE ONCE 5 MIN BEFORE CARCINOGEN TREATMENT (STUDY DURATION: 31 WK), Strain/Sex: CD-1/FEMALE, Dose [Carcinogen]: 10 NMOL IN 0.2 ML ACETONE ONCE", "value": "87%, 94%, -8%, not calculated"}, {"measurement": "outcome", "setting": "Carcinogen: N-Methyl-N'-nitro-N-nitrosoguanidine (70-25-7) and saturated sodium chloride (7647-14-5), Dose [Inhibitor]: 200 mg/kg bw dissolved in corn oil for 20 wk from first dose of MNNG + NaCl and from the 6th wk of MNNG + NaCl induction, Route [Inhibitor]: Gavage, Species: Rat, Strain/Sex: Wistar/Male, Target Tissue: Type of Lesion: Stomach, Dose [Carcinogen]: 200 mg/kg at days 0 and 14 (MNNG) and 1 ml/rat 3 days for 4 wk (NaCl); study duration 20 wk), Promoter: None", "value": "0 (0) in negative controls; 6 (100) in positive controls; 0 (0) simultaneous tre"}]}
{"smiles": "C/C(=C\\c1ccc(C(=O)O)cc1)c1cc2c(s1)CCCC2(C)C", "values": [{"measurement": "tumour outcome (control, treated, inhibition, significance)", "setting": "Dose [Inhibitor]: 0.17 NMOL IN 0.2 ML ACETONE 1 HR PRIOR TO EACH PROMOTER DOSE FOR 12 WK (STUDY DURATION: 14 WK), Strain/Sex: SENCAR/FEMALE, Dose [Carcinogen]: 200 NMOL IN 0.2 ML ACETONE ONCE", "value": "100%, 100%, 0%, not calculated"}, {"measurement": "tumour outcome (control, treated, inhibition, significance)", "setting": "Dose [Inhibitor]: 0.17 NMOL IN 0.2 ML ACETONE 1 HR PRIOR TO EACH PROMOTER DOSE FOR 20 WK (STUDY DURATION: 22 WK), Strain/Sex: CD-1/FEMALE, Dose [Carcinogen]: 200 NMOL IN 0.2 ML ACETONE ONCE", "value": "94%, 89%, 5%, not calculated"}, {"measurement": "tumour outcome (control, treated, inhibition, significance)", "setting": "Dose [Inhibitor]: 1.7 NMOL IN 0.2 ML ACETONE 1 HR PRIOR TO EACH PROMOTER DOSE FOR 12 WK (STUDY DURATION: 14 WK), Strain/Sex: SENCAR/FEMALE, Dose [Carcinogen]: 200 NMOL IN 0.2 ML ACETONE ONCE", "value": "100%, 80%, 20%, not calculated"}, {"measurement": "tumour outcome (control, treated, inhibition, significance)", "setting": "Dose [Inhibitor]: 1.7 NMOL IN 0.2 ML ACETONE 1 HR PRIOR TO EACH PROMOTER DOSE FOR 20 WK (STUDY DURATION: 22 WK), Strain/Sex: CD-1/FEMALE, Dose [Carcinogen]: 200 NMOL IN 0.2 ML ACETONE ONCE", "value": "94%, 52%, 45%, not calculated"}, {"measurement": "tumour outcome (control, treated, inhibition, significance)", "setting": "Dose [Inhibitor]: 17 NMOL IN 0.2 ML ACETONE 1 HR PRIOR TO EACH PROMOTER DOSE FOR 12 WK (STUDY DURATION: 14 WK), Strain/Sex: SENCAR/FEMALE, Dose [Carcinogen]: 200 NMOL IN 0.2 ML ACETONE ONCE", "value": "100%, 3%, 97%, not calculated"}, {"measurement": "tumour outcome (control, treated, inhibition, significance)", "setting": "Dose [Inhibitor]: 17 NMOL IN 0.2 ML ACETONE 1 HR PRIOR TO EACH PROMOTER DOSE FOR 20 WK (STUDY DURATION: 22 WK), Strain/Sex: CD-1/FEMALE, Dose [Carcinogen]: 200 NMOL IN 0.2 ML ACETONE ONCE", "value": "94%, 0%, 100%, not calculated"}]}
{"smiles": "[K+]", "values": [{"measurement": "outcome", "setting": "Carcinogen: N-METHYL-N-NITROSOUREA [684-93-5], Dose [Inhibitor]: 0.05% IN DRINKING WATER, 2 WKS BEFORE CARCINOGEN AND FOR 26 WKS AFTER, Route [Inhibitor]: DRINKING WATER, Species: RAT, Strain/Sex: SPRAGUE-DAWLEY/FEMALE, Target Tissue: Type of Lesion: MAMMARY GLAND: CARCINOMA, Dose [Carcinogen]: 50 MG/KG BW ONCE AT 7 WKS OF AGE (IN SALINE SOLUTION)", "value": "8/11 (73%) vs 10/11 (94%) at 16 wks"}]}
